According to patent publication US9340575B2, “Agonists and antagonists of the urotensinergic system” (INSTITUT NATIONAL DE LA RECHERCHE SCIENTIFIQUE, priority 2011, dated 2016):
Marks after values point to notes of the source that are not given here. Bridge positions count the residues as written; N and C are the ends. Ends that are not written are not given here.

Tested on: rat thoracic aorta rings
Type: cell-based
Conditions: for Aortic Ring contraction pEC50: endothelium-denuded rat thoracic aorta; for Aortic Ring contraction Emax (%), maximum efficacy at 10^−5.5M: percentage of KCl (40 mM) contraction; for Aortic Ring contraction Emax (%): percentage of contraction induced by KCl (40 mM)
Method: Binding and functional experiments were performed at least in triplicate and data, expressed as mean±S.E.M, were analyzed using the Prism software (Graph Pad Software, San Diego, Calif.). In all experiments, n represents the total number of animals studied or individual assays performed. The EC50, pEC50, pIC50 values as well as the Emax value were determined from the concentration-response curves using a sigmoidal dose-response fit with variable slope. […] The slope is calculated from the double reciprocal plot of equiactive concentrations of agonist in the presence and absence of antagonist.

Row | EC50 | Aortic Ring contraction pEC50 | Compound | Agonist behaviour in aortic ring contraction (in words) | Aortic Ring contraction Emax (%), maximum efficacy at 10^−5.5M | Aortic Ring contraction Emax (%)
1 | 262 nM | – | CC(C)[C@H](NC(=O)[C@@H]1CSSC[C@H](NC(=O)[C@H](C)N)C(=O)N[C@@H](Cc2ccccc2)C(=O)N[C@H](C(C)(C)C)C(=O)N[C@@H](CCCCN)C(=O)N[C@@H](Cc2ccc(O)cc2)C(=O)N1)C(=O)O [Compound 8, [D-Tbg^4]URP] | – | – | –
2 | > 1000 nM | <6 | CC(C)[C@H](NC(=O)[C@@H]1CSSC[C@H](NC(=O)[C@H](C)N)C(=O)N[C@@H](Cc2ccccc2)C(=O)N[C@@H](C(c2ccccc2)c2ccccc2)C(=O)N[C@@H](CCCCN)C(=O)N[C@@H](Cc2ccc(O)cc2)C(=O)N1)C(=O)O [Compound 9, H-Ala-Cys-Phe-Dip-Lys-Tyr-Cys-Val-OH] | weak UT agonist | 23^d % | –
3 | 159 nM | – | CC(C)[C@H](NC(=O)[C@@H]1CSSC[C@H](NC(=O)[C@H](C)N)C(=O)N[C@@H](Cc2ccccc2)C(=O)N[C@@H]2Cc3c([nH]c4ccccc34)CN(C2=O)[C@@H](CCCCN)C(=O)N[C@@H](Cc2ccc(O)cc2)C(=O)N1)C(=O)O [Compound 13, [D-Aia^4]URP] | – | – | –
4 | 259 nM | 6.08 ± 0.04 | CC(C)[C@H](NC(=O)[C@@H]1CSSC[C@H](NC(=O)[C@H](C)N)C(=O)N[C@@H](Cc2ccccc2)C(=O)N2Cc3ccccc3C[C@@H]2C(=O)N[C@@H](CCCCN)C(=O)N[C@@H](Cc2ccc(O)cc2)C(=O)N1)C(=O)O [Compound 19, [D-Tic^4]URP] | – | – | 128 ± 12%
5 | 825 nM | 6.08 ± 0.04 | CC(C)[C@H](NC(=O)[C@@H]1CSSC[C@H](NC(=O)[C@H](C)N)C(=O)N[C@@H](Cc2ccccc2)C(=O)N[C@H](Cc2cccc3ccccc23)C(=O)N[C@@H](CCCCN)C(=O)N[C@@H](Cc2ccc(O)cc2)C(=O)N1)C(=O)O [Compound 4, [D-1-Nal^4]URP] | – | 34% | –
6 | – | – | [Pro^7]hUII: hUII in which the Trp residue is replaced by a Pro moiety (ETPDCFPKYCV-OH; disulfide 5-10 (inferred)) | weak agonistic effect | 69% | –
7 | 21 nM | 7.68 ± 0.17 | CC(C)[C@H](NC(=O)[C@@H]1CSSC[C@H](NC(=O)[C@H](C)N)C(=O)N[C@@H](Cc2ccccc2)C(=O)N2CCc3ccccc3[C@@H]2C(=O)N[C@@H](CCCCN)C(=O)N[C@@H](Cc2ccc(O)cc2)C(=O)N1)C(=O)O [Compound 17, [D-Tiq^4]URP] | – | – | 113 ± 7%
8 | 54 nM | 7.27 ± 0.24 | CC(C)[C@H](NC(=O)[C@@H]1CSSC[C@H](NC(=O)[C@H](C)N)C(=O)N[C@@H](Cc2ccccc2)C(=O)N[C@@H](Cc2cccc3ccccc23)C(=O)N[C@@H](CCCCN)C(=O)N[C@@H](Cc2ccc(O)cc2)C(=O)N1)C(=O)O [Compound 3, H-Ala-Cys-Phe-Nal-Lys-Tyr-Cys-Val-OH] | almost equipotent analog | – | 86 ± 8%
